Laboratory results taken from patent US11058742B2, “Food composition for suppressing hepatic lipogenesis” (FUJI OIL HOLDINGS INC., priority 2019, dated 2021).

How the values were obtained:
[1] = system: Fasn gene mRNA; test: Secondary screening: expression level of Fasn gene mRNA in isolated hepatocyte derived from wild-type mouse; assay type: cell-based, mouse (C57BL/6J); details: each peptide 100 μg/ml final concentration, 24 hours, with insulin, LXR agonist, amino acid mixture; vs control (10% DMSO)
Procedure: (§1) In the secondary screening, evaluation is performed by measuring the expression level of Fasn gene mRNA using isolated hepatocyte derived from wild-type mouse (C57BL/6J mouse). More specifically, isolated hepatocyte derived from wild-type mouse (C57BL/6J mouse) is plated in 12-well plate in Dulbecco's modified Eagle's medium (DMEM) containing 1% penicillin and streptomycin, and 10% fetal calf serum (FCS) for 8 hours, and then subjected to 16 hours starvation by replacing the medium with Dulbecco's modified Eagle's medium (DMEM) containing 1% penicillin and streptomycin. The medium is recovered and cultured for 24 hours in a medium containing insulin, liver X receptor (LXR) agonist, amino acid mixture, and each peptide (100 μg/ml in the medium at final concentration). In addition, as a group without adding peptide, a sample to which 10% dimethyl sulfoxide (DMSO) is added instead of the peptide is similarly cultured for 24 hours. After removing the medium from each well, mRNA is extracted. The extraction of mRNA is performed with the SV Total RNA Isolation System (Promega, Z3105), reverse transcription from the RNA is performed with the PrimeScript RT reagent kit (Takara, RR0037A), and quantitative PCR is performed with the CFX384 Real-Time System and C1000 Thermal Cycler using the SYBR Select Master Mix kit (Life technologies, 4472908). The methods comply with the instructions for the kit and equipment.

[2] = system: Fasn gene mRNA; test: Tertiary screening: Fasn gene expression level with changed amount of peptide; assay type: cell-based, mouse (C57BL/6J); details: for effect of suppressing hepatic lipogenesis: conclusion from the results of primary to tertiary screening; for Fasn gene expression level (significantly reduced compared to the blank): final concentration of the sample 10, 30, 100 μg/ml, otherwise as secondary screening
Procedure: as §1
The amount of peptide to be added is changed (as used herein, the final concentration of the sample is 10, 30, 100 μg/ml, unless otherwise specified), and the expression level of the Fasn gene is evaluated in the same manner as in the secondary screening.

## Ala-Gly
[1]
  Fasn gene expression level (significantly reduced compared to the blank): significantly suppressed the expression of the Fasn gene
[2]
  effect of suppressing hepatic lipogenesis: an effect of suppressing hepatic lipogenesis was confirmed
  Fasn gene expression level (significantly reduced compared to the blank): significantly suppressed the expression of the Fasn gene

## Ala-His
[1]
  Fasn gene expression level (significantly reduced compared to the blank): significantly suppressed the expression of the Fasn gene

## Ala-Tyr
[1]
  Fasn gene expression level (significantly reduced compared to the blank): significantly suppressed the expression of the Fasn gene

## Arg-Ala-Val
[2]
  effect of suppressing hepatic lipogenesis: an effect of suppressing hepatic lipogenesis was confirmed
  Fasn gene expression level (significantly reduced compared to the blank): significantly suppressed the expression of the Fasn gene

## Arg-Trp-Phe
[2]
  effect of suppressing hepatic lipogenesis: an effect of suppressing hepatic lipogenesis was confirmed
  Fasn gene expression level (significantly reduced compared to the blank): significantly suppressed the expression of the Fasn gene

## Asn-Arg-Val
[2]
  effect of suppressing hepatic lipogenesis: an effect of suppressing hepatic lipogenesis was confirmed
  Fasn gene expression level (significantly reduced compared to the blank): significantly suppressed the expression of the Fasn gene

## Asn-Gly-Arg
[2]
  effect of suppressing hepatic lipogenesis: an effect of suppressing hepatic lipogenesis was confirmed
  Fasn gene expression level (significantly reduced compared to the blank): significantly suppressed the expression of the Fasn gene

## Asp-Phe-Phe
[2]
  effect of suppressing hepatic lipogenesis: an effect of suppressing hepatic lipogenesis was confirmed
  Fasn gene expression level (significantly reduced compared to the blank): significantly suppressed the expression of the Fasn gene

## Asp-Val-Phe
[2]
  effect of suppressing hepatic lipogenesis: an effect of suppressing hepatic lipogenesis was confirmed
  Fasn gene expression level (significantly reduced compared to the blank): significantly suppressed the expression of the Fasn gene

## Gln-Glu-Glu
[2]
  effect of suppressing hepatic lipogenesis: an effect of suppressing hepatic lipogenesis was confirmed
  Fasn gene expression level (significantly reduced compared to the blank): significantly suppressed the expression of the Fasn gene

## Gly-Ser-Leu
[2]
  effect of suppressing hepatic lipogenesis: an effect of suppressing hepatic lipogenesis was confirmed
  Fasn gene expression level (significantly reduced compared to the blank): significantly suppressed the expression of the Fasn gene

## His-Ala-Gln
[2]
  effect of suppressing hepatic lipogenesis: an effect of suppressing hepatic lipogenesis was confirmed
  Fasn gene expression level (significantly reduced compared to the blank): significantly suppressed the expression of the Fasn gene

## His-Asn
[1]
  Fasn gene expression level (significantly reduced compared to the blank): significantly suppressed the expression of the Fasn gene
[2]
  effect of suppressing hepatic lipogenesis: an effect of suppressing hepatic lipogenesis was confirmed
  Fasn gene expression level (significantly reduced compared to the blank): significantly suppressed the expression of the Fasn gene

## His-Ser
[1]
  Fasn gene expression level (significantly reduced compared to the blank): significantly suppressed the expression of the Fasn gene
[2]
  effect of suppressing hepatic lipogenesis: an effect of suppressing hepatic lipogenesis was confirmed
  Fasn gene expression level (significantly reduced compared to the blank): significantly suppressed the expression of the Fasn gene

## His-Thr
[1]
  Fasn gene expression level (significantly reduced compared to the blank): significantly suppressed the expression of the Fasn gene
[2]
  effect of suppressing hepatic lipogenesis: an effect of suppressing hepatic lipogenesis was confirmed
  Fasn gene expression level (significantly reduced compared to the blank): significantly suppressed the expression of the Fasn gene

## His-Trp
[1]
  Fasn gene expression level (significantly reduced compared to the blank): significantly suppressed the expression of the Fasn gene
[2]
  effect of suppressing hepatic lipogenesis: an effect of suppressing hepatic lipogenesis was confirmed
  Fasn gene expression level (significantly reduced compared to the blank): significantly suppressed the expression of the Fasn gene

## Ile-Asp-Arg
[2]
  effect of suppressing hepatic lipogenesis: an effect of suppressing hepatic lipogenesis was confirmed
  Fasn gene expression level (significantly reduced compared to the blank): significantly suppressed the expression of the Fasn gene

## Ile-His-Arg
[2]
  effect of suppressing hepatic lipogenesis: an effect of suppressing hepatic lipogenesis was confirmed
  Fasn gene expression level (significantly reduced compared to the blank): significantly suppressed the expression of the Fasn gene

## Ile-Ile-Pro
[2]
  effect of suppressing hepatic lipogenesis: an effect of suppressing hepatic lipogenesis was confirmed
  Fasn gene expression level (significantly reduced compared to the blank): significantly suppressed the expression of the Fasn gene

## Ile-Val-Ile
[2]
  effect of suppressing hepatic lipogenesis: an effect of suppressing hepatic lipogenesis was confirmed
  Fasn gene expression level (significantly reduced compared to the blank): significantly suppressed the expression of the Fasn gene

## Leu-Arg-Asp
[2]
  effect of suppressing hepatic lipogenesis: an effect of suppressing hepatic lipogenesis was confirmed
  Fasn gene expression level (significantly reduced compared to the blank): significantly suppressed the expression of the Fasn gene

## Leu-Val-Ile
[2]
  effect of suppressing hepatic lipogenesis: an effect of suppressing hepatic lipogenesis was confirmed
  Fasn gene expression level (significantly reduced compared to the blank): significantly suppressed the expression of the Fasn gene

## Lys-Leu-Gly
[2]
  effect of suppressing hepatic lipogenesis: an effect of suppressing hepatic lipogenesis was confirmed
  Fasn gene expression level (significantly reduced compared to the blank): significantly suppressed the expression of the Fasn gene

## Lys-Pro-Ile
[2]
  effect of suppressing hepatic lipogenesis: an effect of suppressing hepatic lipogenesis was confirmed
  Fasn gene expression level (significantly reduced compared to the blank): significantly suppressed the expression of the Fasn gene

## Phe-Ile-Arg
[2]
  effect of suppressing hepatic lipogenesis: an effect of suppressing hepatic lipogenesis was confirmed
  Fasn gene expression level (significantly reduced compared to the blank): significantly suppressed the expression of the Fasn gene

## Pro-Phe-Tyr
[2]
  effect of suppressing hepatic lipogenesis: an effect of suppressing hepatic lipogenesis was confirmed
  Fasn gene expression level (significantly reduced compared to the blank): significantly suppressed the expression of the Fasn gene

## Ser-Gly-Glu
[2]
  effect of suppressing hepatic lipogenesis: an effect of suppressing hepatic lipogenesis was confirmed
  Fasn gene expression level (significantly reduced compared to the blank): significantly suppressed the expression of the Fasn gene

## Ser-Ser-Val
[2]
  effect of suppressing hepatic lipogenesis: an effect of suppressing hepatic lipogenesis was confirmed
  Fasn gene expression level (significantly reduced compared to the blank): significantly suppressed the expression of the Fasn gene

## Trp-Glu
[1]
  Fasn gene expression level (significantly reduced compared to the blank): significantly suppressed the expression of the Fasn gene
[2]
  effect of suppressing hepatic lipogenesis: an effect of suppressing hepatic lipogenesis was confirmed
  Fasn gene expression level (significantly reduced compared to the blank): significantly suppressed the expression of the Fasn gene

## Trp-Lys
[1]
  Fasn gene expression level (significantly reduced compared to the blank): significantly suppressed the expression of the Fasn gene
[2]
  effect of suppressing hepatic lipogenesis: an effect of suppressing hepatic lipogenesis was confirmed
  Fasn gene expression level (significantly reduced compared to the blank): significantly suppressed the expression of the Fasn gene

## Tyr-Lys
[1]
  Fasn gene expression level (significantly reduced compared to the blank): significantly suppressed the expression of the Fasn gene
[2]
  effect of suppressing hepatic lipogenesis: an effect of suppressing hepatic lipogenesis was confirmed
  Fasn gene expression level (significantly reduced compared to the blank): significantly suppressed the expression of the Fasn gene

## Tyr-Ser
[1]
  Fasn gene expression level (significantly reduced compared to the blank): significantly suppressed the expression of the Fasn gene
[2]
  effect of suppressing hepatic lipogenesis: an effect of suppressing hepatic lipogenesis was confirmed
  Fasn gene expression level (significantly reduced compared to the blank): significantly suppressed the expression of the Fasn gene

## Tyr-Tyr
[1]
  Fasn gene expression level (significantly reduced compared to the blank): significantly suppressed the expression of the Fasn gene
[2]
  effect of suppressing hepatic lipogenesis: an effect of suppressing hepatic lipogenesis was confirmed
  Fasn gene expression level (significantly reduced compared to the blank): significantly suppressed the expression of the Fasn gene

## Val-Ile-Leu
[2]
  effect of suppressing hepatic lipogenesis: an effect of suppressing hepatic lipogenesis was confirmed
  Fasn gene expression level (significantly reduced compared to the blank): significantly suppressed the expression of the Fasn gene

## Val-Leu-Gln
[2]
  effect of suppressing hepatic lipogenesis: an effect of suppressing hepatic lipogenesis was confirmed
  Fasn gene expression level (significantly reduced compared to the blank): significantly suppressed the expression of the Fasn gene

## Val-Met
[1]
  Fasn gene expression level (significantly reduced compared to the blank): significantly suppressed the expression of the Fasn gene
[2]
  effect of suppressing hepatic lipogenesis: an effect of suppressing hepatic lipogenesis was confirmed
  Fasn gene expression level (significantly reduced compared to the blank): significantly suppressed the expression of the Fasn gene

## Val-Phe-Val
[2]
  effect of suppressing hepatic lipogenesis: an effect of suppressing hepatic lipogenesis was confirmed
  Fasn gene expression level (significantly reduced compared to the blank): significantly suppressed the expression of the Fasn gene
